Blank lines part the entries; values can stand above or below the compound they belong to.
Key:
[1] = system: myosin light chain (MLC) phosphorylation; test: Western blotting of MLC phosphorylation in HUVEC; format: cell-based, human
Protocol: (§1) A monolayer of HUVEC cells following varying treatments were lyzed in RIPA buffer containing protease and phosphatase inhibitors (Pierce Biotechnologies). 20 μg of cell lysate was used for western blotting and probed with antibodies according to the suppliers' recommendations to assess off target effects on several major signaling pathways. Antibodies to p-ERK, ERK, p-PI3K, PI3K, p-FAK, FAK, p-PAK1, PAK1, p-PAK2, PAK2, p-MLC, p-NF-κB, NF-κB were used to probe western blots (Cell Signaling). α-Tubulin (Millipore Sigma) was used as a loading control.

[2] = system: MAPK/ERK, PI3K/AKT, NF-κB and vascular permeability regulation pathways; test: Off-target effects on key signaling pathways by western blotting in HUVEC; format: cell-based, human; details: versus DMSO control
Protocol: as §1

HUVEC = HUVEC monolayer model of endothelial gap formation (VE-cadherin staining); format: cell-based, human; details: for EC gap formation induced by VEGF / EC gap formation induced by IL-8 / EC gap formation induced by BK / EC gap formation, agonist alone: 5 μM; for EC gap formation induced by VEGF: 100 ng/ml VEGF; for EC gap formation induced by IL-8: 150 ng/ml IL-8; for EC gap formation induced by BK: 0.5 μM BK; for EC gap formation, agonist alone: no inflammatory mediator; for EC gap formation, screening of inflammatory inhibitors: FIG. 8, 5 μM
Protocol: HUVECs were seeded on coverslips coated with fibronectin (Millipore Sigma) and cultured to confluency. […] HUVECs fixed with 2% cold paraformaldehyde (Electron Microscopy Science) and treated with 0.1% triton X-100 (Fisher) were exposed to a human VE-cadherin antibody (Santa Cruz) followed by the secondary antibody conjugated with Alexa488 (Invitrogen). Coverslips were mounted to slides using the antifade mounting medium with DAPI (Vector Laboratories).

S1PR1 = S1PR1 (Homo sapiens, UniProt P21453); test: S1P1 GPCR cell-based agonist arrestin biosensor assay (Eurofins DiscoverX); details: FIG. 1C
Description: 4-Phenyl-5-trifluoromethyl-thiophene-2-carboxylic acid (1) was first converted in situ to the corresponding acid chloride by treating with oxalyl chloride in the presence of catalytic N,N-dimethyl formamide. […] The structures of Intermediate 3 and Compound I were characterized on the basis of NMR and mass spectrometry.

[3] = system: intact rat mesenteric venules; test: Hydraulic conductivity (Lp) in individually perfused rat mesenteric microvessels; format: in vivo
Protocol: Experiments were undertaken on mesenteric venules from female Sprague-Dawley rats (2-3-month old, 220-250 g body weight, Sage Laboratory). Inactin hydrate was used for anesthesia through subcutaneous administration. The initial dosage of inactin was 180 mg/kg body weight and an additional 5 mg/dose given as needed. After the rat reached the appropriate plane of anesthesia, determined by the loss of the toe pinch response and the righting reflex, a midline surgical incision was made in the abdominal wall. A loop of the ileum was gently extended from the abdominal cavity and the mesentery was spread over a pillar attached to an animal tray. The upper surface of the mesentery was continuously perfused with mammalian Ringer's solution at 37° C. All experiments were carried out on venules with diameters ranging between […]. Each experiment was performed on a single vessel with one experiment per animal. Euthanasia was performed through bilateral thoracotomy while animals were under anesthesia. Microvessel permeability was assessed by measuring one of the permeability coefficients, hydraulic conductivity, Lp, using the modified […] technique. The assumptions and limitations of the method have been evaluated in detail (31-33). […] The initial water flux (Jv) per unit area of microvessel wall (S), (Jv/S)0, was calculated from the velocity of the marker cell after the vessel was occluded, the vessel radius, and the length between the marker cell and the occlusion site. Microvessel Lp was calculated from the Starling equation, Lp=(Jv/S)/ΔP, where ΔP represents the pressure difference between the hydrostatic pressure applied to the microvessel and the effective oncotic pressure generated from the albumin in the perfusate, assuming the tissue hydrostatic and oncotic pressures are negligible (31). In each experiment, baseline Lp and the stimulus-induced Lp changes were measured in the same vessel, which allows the changes to be compared with its own control. […]

A375M-GFP melanoma cells = test: Experimental lung metastasis model, A375M-GFP; format: in vivo, Athymic Foxn1nu nude mice; details: 5 mg/kg intraperitoneally 6, 12 or 18 hours before cells, day 29; control 62
Protocol: […] lacking Compound I (Lipo) vehicle control, for 6, 12 or 18 hours prior to intravenous injection of 1 million A375M-GFP cells through the tail vein. […] For experiments using UACC 903M-GFP and 1205Lu-GFP cells, 15 mg/kg of the nanoliposomal formulation were given 6 hours before cancer cell injection. Body weight was monitored to ensure no significant toxicity during the experimental metastasis assay. On day 29, whole lungs were removed and imaged by fluorescent microscopy to quantify the numbers of metastatic nodules in a double-blinded manner.

[4] = system: S1PR1 in HEK293A-S1P1-GFP cells; test: S1PR1 internalization assay; format: cell-based; details: 5 μM W146
Protocol: […] cells were plated on collagen-coated coverslips (30). Cells were cultured overnight in DMEM with 2% charcoal-stripped serum. Prior to the experiment, cells were cultured in serum-free DMEM for 1.5 hours.

Sequence of S1PR1 (P21453 whole entry): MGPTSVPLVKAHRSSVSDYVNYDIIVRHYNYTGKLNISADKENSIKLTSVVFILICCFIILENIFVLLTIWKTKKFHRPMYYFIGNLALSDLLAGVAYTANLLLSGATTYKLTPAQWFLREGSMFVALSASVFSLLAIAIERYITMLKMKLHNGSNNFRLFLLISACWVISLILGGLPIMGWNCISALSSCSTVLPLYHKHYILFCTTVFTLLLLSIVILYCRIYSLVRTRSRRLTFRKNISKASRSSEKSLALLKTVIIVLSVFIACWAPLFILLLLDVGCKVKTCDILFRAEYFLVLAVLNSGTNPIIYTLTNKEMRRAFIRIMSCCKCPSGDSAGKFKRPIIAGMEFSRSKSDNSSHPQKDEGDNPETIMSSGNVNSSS

MLC phosphorylation induced by MIC-1 and inflammatory mediators ([1]; FIG. 15E): inhibited the MLC phosphorylation
EC50 (S1PR1): 43 nM
Structure (SMILES): Oc1cccc(-c2noc(-c3cc(-c4ccccc4)c(C(F)(F)F)s3)n2)c1 [Compound I, 3-[5-(4-Phenyl-5-trifluoromethyl-thiophen-2-yl)-[1,2,4]oxadiazol-3-yl]-phenol]
pMLC levels raised by BK, VEGF or IL-8 ([1]; HUVEC, western blotting): reverse and decrease the pMLC levels
pMLC levels, Compound I alone ([1]; HUVEC, western blotting): did not increase pMLC levels
levels or activity of biomarker proteins in signaling pathways (off-target effects) [2]: No significant changes
EC gap formation induced by VEGF (HUVEC): reduced the EC gap formation
EC gap formation induced by IL-8 (HUVEC): reduced the EC gap formation
EC gap formation induced by BK (HUVEC): reduced the EC gap formation
EC gap formation, agonist alone (HUVEC): did not affect EC gap formation
EC gap formation, screening of inflammatory inhibitors (HUVEC): inhibited EC gap formation
endothelial gap formation induced by MIC-1 and BK (HUVEC; confluent HUVEC monolayer): inhibited the endothelial gap formation
endothelial gap formation induced by MIC-1 and VEGF (HUVEC; confluent HUVEC monolayer): inhibited the endothelial gap formation

Structure (SMILES): COC(=O)c1ccc2c(c1)NC(=O)/C2=C(\Nc1ccc(N(C)C(=O)CN2CCN(C)CC2)cc1)c1ccccc1 [Nintedanib]
EC gap formation, screening of inflammatory inhibitors (HUVEC): did not decrease EC gap formation

Structure (SMILES): CC(=O)N1CCN(C(=O)/C=C/c2ccc(Sc3ccccc3C(C)C)c([N+](=O)[O-])c2)CC1 [Compound A286982]
EC gap formation, screening of inflammatory inhibitors (HUVEC): did not decrease EC gap formation

Structure (SMILES): FC(F)(F)c1cccc(-c2noc(-c3cc(-c4ccccc4)c(C(F)(F)F)s3)n2)c1 [SEW2871]
PAF-induced mean Lp ([3]; PAF 10 nM in presence of SEW2871 10 PM (printed), n=6): 1.73±0.15 times that of the control
effect on baseline Lp ([3]; SEW2871 10 PM (printed), perfusion 30 minutes): did not change the baseline Lp
metastatic nodules in the lung (A375M-GFP melanoma cells): 17-27
EC gap formation induced by VEGF (HUVEC): reduced the EC gap formation
EC gap formation induced by IL-8 (HUVEC): reduced the EC gap formation
EC gap formation induced by BK (HUVEC): reduced the EC gap formation
EC gap formation, agonist alone (HUVEC): did not affect EC gap formation
EC gap formation, screening of inflammatory inhibitors (HUVEC): inhibited EC gap formation
endothelial gap formation induced by MIC-1 and BK (HUVEC; confluent HUVEC monolayer): inhibited the endothelial gap formation

Structure (SMILES): C=CC[C@@H]1/C=C(\C)C[C@H](C)C[C@H](OC)[C@H]2O[C@@](O)(C(=O)C(=O)N3CCCC[C@H]3C(=O)O[C@H](/C(C)=C/[C@@H]3CC[C@@H](O)[C@H](OC)C3)[C@H](C)[C@@H](O)CC1=O)[C@H](C)C[C@@H]2OC [Tacrolimus]
EC gap formation, screening of inflammatory inhibitors (HUVEC): did not decrease EC gap formation

Structure (SMILES): O=C(Nc1c(Cl)cncc1Cl)c1ccc(OC(F)F)c(OCC2CC2)c1 [Roflumilast]
EC gap formation, screening of inflammatory inhibitors (HUVEC): did not decrease EC gap formation

Structure (SMILES): CCCCCCc1cccc(NC(=O)[C@H](N)CCP(=O)(O)O)c1 [Compound W146]
effect of W146 on internalization mediated by Compound I and SEW2871 [4]: blocked
effect of W146 on the formulation's inhibition of PAF-induced Lp increase ([3]; W146 10 μM): abolished the effect of the nanoliposomal formulation
effect of W146 on Compound I inhibition of BK-mediated EC gap formation (HUVEC; 5 μM W146): blocked the effect of Compound I
